Assay results from publication PMC12596195, “Mei5–Sae3 stabilizes both active and inactive forms of Dmc1 filaments independently of its impact on ATP hydrolysis” (Nucleic Acids Research, 2025).

Columns and labels:
ScDmc1 (Dmc1–WT) = target: T1, ScDmc1 (Dmc1–WT) (Saccharomyces cerevisiae, UniProt P25453); assay: nitrocellulose filter binding; conditions: 3 µM Dmc1, 90 nt ssDNA (6 µM nt), 5 mM Mg2+, 70 µM Ca2+, pH 7.5, 30°C; labelled compound (alpha-32P); read-out: KD (apparent)
T1 construct: N-terminal 6x-His tag (kept), expressed in E. coli; nucleoprotein filament on 90 nt ssDNA
T1 sequence (P25453 1-334): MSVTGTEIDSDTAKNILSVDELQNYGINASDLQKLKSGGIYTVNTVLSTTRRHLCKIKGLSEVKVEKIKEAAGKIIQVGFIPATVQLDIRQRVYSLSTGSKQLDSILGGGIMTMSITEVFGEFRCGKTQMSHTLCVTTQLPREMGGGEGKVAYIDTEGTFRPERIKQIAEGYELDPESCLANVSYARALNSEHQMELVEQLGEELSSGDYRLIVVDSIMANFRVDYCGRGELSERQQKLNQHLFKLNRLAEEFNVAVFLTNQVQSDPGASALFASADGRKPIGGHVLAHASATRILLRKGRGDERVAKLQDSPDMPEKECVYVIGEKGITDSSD
Text: nitrocellulose filter binding on ScDmc1 (Dmc1–WT) | Dmc1–WT binds ATP with the same apparent affinity in the presence and absence of Mei5–Sae3

ScDmc1 = target: T2, ScDmc1 (Saccharomyces cerevisiae, UniProt P25453, E157D); assay: nitrocellulose filter binding; conditions: 3 µM Dmc1, 90 nt ssDNA (6 µM nt), 5 mM Mg2+, 70 µM Ca2+, pH 7.5, 30°C; labelled compound (alpha-32P)
T2 construct: gene DMC1; N-terminal 6x-His tag (kept), expressed in E. coli; nucleoprotein filament on 90 nt ssDNA
T2 sequence (P25453 1-334 E157D): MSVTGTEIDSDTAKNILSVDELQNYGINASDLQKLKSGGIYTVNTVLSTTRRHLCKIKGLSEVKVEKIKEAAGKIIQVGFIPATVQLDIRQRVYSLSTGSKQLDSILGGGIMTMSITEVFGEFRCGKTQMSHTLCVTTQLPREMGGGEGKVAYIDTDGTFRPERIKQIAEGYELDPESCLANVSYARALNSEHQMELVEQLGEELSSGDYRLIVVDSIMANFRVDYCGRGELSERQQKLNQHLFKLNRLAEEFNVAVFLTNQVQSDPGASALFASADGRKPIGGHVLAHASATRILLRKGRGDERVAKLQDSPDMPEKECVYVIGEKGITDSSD

Kd (ScDmc1 (Dmc1–WT)): 5 to 6 µM
Compound: Nc1ncnc2c1ncn2[C@@H]1O[C@H](COP(=O)(O)OP(=O)(O)OP(=O)(O)O)[C@@H](O)[C@H]1O [ATP]
nitrocellulose filter binding (ScDmc1): ATP binding activity of Dmc1–E157D and found it was significantly reduced
